Measurements reported in paper PMC10353390, “Biological and Structural Analyses of New Potent Allosteric Inhibitors of HIV-1 Integrase” (Antimicrobial Agents and Chemotherapy, 2023).
Where two headings read alike, the source gives them in different places.

Assays:
[1] = system: lab-adapted and clinical HIV-1 isolates; assay: Infection assays in primary T CD4+ lymphocytes; type: cell-based; settings: Human immunodeficiency virus 1, Lymphocyte
[2] = system: NL4-3 HIV-1 with INLAI-selected IN single point mutations; type: cell-based
NL4-3 HIV-1 strain = assay: Multiple-round infection assay in MT4 cells, NL4-3; type: cell-based; settings: MT4 cells
[3] = biological target: HIV-1 IN-LEDGF/p75 interaction (Human immunodeficiency virus type 1 group M subtype B, UniProt P12497); assay: biochemical
[4] = system: HIV-1 strains resistant to INSTIs, NRTIs, NNRTIs or PIs; type: cell-based
Method: To this end, we used both recombinant viruses constructed by introducing described drug resistance mutations into NL4-3 HIV-1 clone as well as drug-resistant clinical HIV-1 isolates.
(§1) MT4 cells growing exponentially at the density of 10^6/mL were infected with HIV-1 strain NL4-3 at a multiplicity of infection (MOI) of 0.001 for 2 h in the presence of different concentrations of compounds, and the CellTiter-Glo luminescent reagent (Promega) was used to quantify cell viability as described previously ([12]).

HIV-1 IN = biological target: T1, HIV-1 IN (Human immunodeficiency virus type 1 group M subtype B, UniProt P12497); assay: HTRF IN multimerization assay; type: biochemical; settings: mean ± SD
T1 construct: made in house
Excerpt: A key property of INLAIs is the ability to promote HIV-1 IN homo-multimerization ([39][–][42]). […] The maximal signal (plateau) in our IN aggregation assay corresponds to the highest HTRF signal increase under saturating INLAI concentration, relative to baseline level. Thus, MUT916, MUT884, MUT871, and MUT872 increased HIV-1 IN aggregation 3.7 to 4.4-fold, while BDM-2, BI-224436, and S-I-82 did so 5 to 6-fold (Table 1).

[5] = biological target: CCD of HIV-1 IN and IBD of LEDGF/p75 (Human immunodeficiency virus type 1 group M subtype B, UniProt P12497); assay: biochemical
[6] = system: recombinant NL4-3 viruses with polymorphisms at IN positions 124 and 125; assay: Multiple-round infection of MT4 cells with recombinant NL4-3 viruses polymorphic at IN positions 124 and 125; type: cell-based, HIV-1
Excerpt: Located on the HIV-1 IN CCD dimerization interface, the principal INLAI binding pocket overlaps with a hot spot of amino acid sequence polymorphism involving IN residues 124 and 125 ([16]). To test if the new INLAIs maintained antiviral activity against major polymorphisms, we introduced all major combinations of residues found in circulating HIV-1 strains at positions 124 and 125 into NL4-3 HIV-1 molecular clone. In total, we evaluated 15 such combinations that collectively covered 98% of all HIV-1 clade polymorphisms involving these positions ([48]). To gauge effects on the antiviral activity, we calculated the EC50 fold change (FC) relative to wild type NL4-3 HIV-1 strain that features Thr124 and Thr125 (TT; specific polymorphisms are referred to by a single letter amino acid code).
as §1

[7] = Cytotoxicity assay in MT4 cells; type: cell-based; settings: human, MT4 cells (proliferating human T-cell line), CellTiter-Glo
Excerpt: Growth inhibition was monitored in a proliferating human T-cell line (MT4) with different concentrations of compounds, using the CellTiter-Glo luminescent reagent (Promega), as previously described ([12]).

HXB2 HIV-1 strain = assay: Multiple-round infection assay in MT4 cells, HXB2; type: cell-based; settings: Human immunodeficiency virus 1, HXB2; multiple-round infection, MT4 cells; mean ± SD, n > 5; read-out: EC50 HXB2
Method: Antiretroviral activity of BDM-2 and its analogs was first evaluated in lymphoblastoid cell line MT4 and in primary human T lymphocytes using NL4-3 and HXB2 laboratory HIV-1 isolates.
as §1

[8] = system: VSV-G-pseudotyped NL4-3Δenv-luc; assay: microbe, parasite or virus in culture; type: cell-based, HIV-1; settings: Human immunodeficiency virus 1, NL43, MT4, read-out: EC50 in single-round infection
[9] = system: primary HIV-1 isolates with polymorphisms at IN positions 124 and 125; assay: Multiple-round infection of MT4 cells with primary HIV-1 isolates polymorphic at IN positions 124 and 125; type: cell-based; settings: primary isolate
Method: Next, we evaluated the potency of the BDM-2 series of INLAIs against several primary HIV-1 isolates with polymorphisms at IN positions 124 and 125.
as §1

[10] = INSTI-resistant, NL4-3 background
[11] = INSTI-resistant, primary patient-derived strain

Cc1nc2ccccc2c(-c2ccc3c4c(ccnc24)CCO3)c1[C@H](OC(C)(C)C)C(=O)O [BI-224436, reference compound]
EC50 ([1]; read-out: EC50 33913N (B)): 20 ± 9 nM | EC50 ([1]; read-out: EC50 HXB2 (B)): 14 ± 7 nM | EC50 ([1]; read-out: EC50 KER2008 (A)): 37 ± 12 nM | EC50 ([1]; read-out: EC50 NL4-3 (B)): 100 ± 80 nM | EC50 ([1]; read-out: EC50 NP1525 (CRF01_AE)): 61 ± 35 nM | EC50 ([1]; read-out: EC50 NP1538 (B)): 66 ± 42 nM | EC50 fold change compared to wild type NL4-3, A128T [2]: 6 | EC50 fold change compared to wild type NL4-3, H171Q [2]: 4 | EC50 fold change compared to wild type NL4-3, N222K [2]: 2 | EC50 fold change compared to wild type NL4-3, T174I [2]: 706 | EC50 fold change compared to wild type NL4-3, Y99H [2]: 2 | EC90 (NL4-3 HIV-1 strain; Human immunodeficiency virus 1, NL43, multiple-round infection, from dose response curves, read-out: EC90 NL4-3): 77 ± 34 nM | EC50 (NL4-3 HIV-1 strain; Human immunodeficiency virus 1, NL43, multiple-round infection, mean ± SD, n > 5, read-out: EC50 NL4-3): 51 ± 17 nM | Selectivity index CC50/EC50 NL4-3 (NL4-3 HIV-1 strain): >3,921 | IC50 [3]: 90 ± 19 nM | Fold change in EC50 relative to NL4-3, E92Q [4, 10]: 1 | Fold change in EC50 relative to NL4-3, G140S [4, 10]: 1 | Fold change in EC50 relative to NL4-3, G140S/Q148H [4, 10]: 1 | Fold change in EC50 relative to NL4-3, N155H [4, 10]: 1 | Fold change in EC50 relative to NL4-3, Q148H [4, 10]: 1 | Fold change in EC50 relative to NL4-3, Y143R [4, 10]: 1 | Fold change in EC50 relative to NL4-3, E92Q/N155H (pat.) [4, 11]: 1 | Fold change in EC50 relative to NL4-3, G140S/Q148H (pat.) [4, 11]: 1 | Fold change in EC50 relative to NL4-3, T97A/N155H (pat.) [4, 11]: 1 | Fold change in EC50 relative to NL4-3, NLAY351717 ([4]; NRTI-resistant clone): 1 | Fold change in EC50 relative to NL4-3, NLAY351753 ([4]; NRTI/NNRTI-resistant clone): 1 | Fold change in EC50 relative to NL4-3, K103N/Y181C ([4]; NRTI/NNRTIs group, NL4-3 background): 1 | Fold change in EC50 relative to NL4-3, ARP-4595 ([4]; PI-resistant virus): 0.4 | Fold change in EC50 relative to NL4-3, ARP-4596 ([4]; PI-resistant virus): 0.5 | Fold change in EC50 relative to NL4-3, ARP-11801 ([4]; PI-resistant virus): 1 | Fold change in EC50 relative to NL4-3, ARP-11803 ([4]; PI-resistant virus): 1 | Fold change in EC50 relative to NL4-3, ARP-11807 ([4]; PI-resistant virus): 1 | Fold change in EC50 relative to NL4-3, ARP-11808 ([4]; PI-resistant virus): 1 | AC50 (HIV-1 IN; concentration for 50% maximum activation of multimerization): 34 ± 11 nM | IN multimerization Plateau (HIV-1 IN; maximum multimerization reached versus baseline): 670 ± 210% | IC50 [5]: 73 ± 13 nM | Fold change in EC50 relative to parental NL4-3, AA ([6]; recombinant NL4-3, IN 124/125 AA): 1 | Fold change in EC50 relative to parental NL4-3, AM ([6]; recombinant NL4-3, IN 124/125 AM): 0.4 | Fold change in EC50 relative to parental NL4-3, AT ([6]; recombinant NL4-3, IN 124/125 AT): 1 | Fold change in EC50 relative to parental NL4-3, AV ([6]; recombinant NL4-3, IN 124/125 AV): 1 | Fold change in EC50 relative to parental NL4-3, GA ([6]; recombinant NL4-3, IN 124/125 GA): 1 | Fold change in EC50 relative to parental NL4-3, GT ([6]; recombinant NL4-3, IN 124/125 GT): 2 | Fold change in EC50 relative to parental NL4-3, NA ([6]; recombinant NL4-3, IN 124/125 NA): 1 | Fold change in EC50 relative to parental NL4-3, NT ([6]; recombinant NL4-3, IN 124/125 NT): 1 | Fold change in EC50 relative to parental NL4-3, NV ([6]; recombinant NL4-3, IN 124/125 NV): 1 | Fold change in EC50 relative to parental NL4-3, SA ([6]; recombinant NL4-3, IN 124/125 SA): 1 | Fold change in EC50 relative to parental NL4-3, ST ([6]; recombinant NL4-3, IN 124/125 ST): 1 | Fold change in EC50 relative to parental NL4-3, TA ([6]; recombinant NL4-3, IN 124/125 TA): 1 | Fold change in EC50 relative to parental NL4-3, TM ([6]; recombinant NL4-3, IN 124/125 TM): 0.4 | Fold change in EC50 relative to parental NL4-3, TV ([6]; recombinant NL4-3, IN 124/125 TV): 1 | CC50 [7]: > 200000 nM | EC50 (HXB2 HIV-1 strain): 23 ± 8.4 nM | EC50 [8]: 1400 ± 300 nM | Fold change in EC50 relative to parental NL4-3, CAM2BBY (CRF02) ([9]; IN 124/125 AA): 2 | Fold change in EC50 relative to parental NL4-3, E0836M4 (D) ([9]; IN 124/125 AA): 1 | Fold change in EC50 relative to parental NL4-3, KER2008 (A) ([9]; IN 124/125 AA): 1 | Fold change in EC50 relative to parental NL4-3, NP1525 (CRF01) ([9]; IN 124/125 AA): 1 | Fold change in EC50 relative to parental NL4-3, NP1695 (CRF02) ([9]; IN 124/125 AA): 2 | Fold change in EC50 relative to parental NL4-3, TZA125 (C) ([9]; IN 124/125 AA): 0.5 | Fold change in EC50 relative to parental NL4-3, KSM4030 (A) ([9]; IN 124/125 GA): 1 | Fold change in EC50 relative to parental NL4-3, vGA (C) ([9]; IN 124/125 GA): 2 | Fold change in EC50 relative to parental NL4-3, 99ET14 (C) ([9]; IN 124/125 NA): 1 | Fold change in EC50 relative to parental NL4-3, NP1538 (B) ([9]; IN 124/125 NA): 1 | Fold change in EC50 relative to parental NL4-3, vNA_1 (B) ([9]; IN 124/125 NA): 2 | Fold change in EC50 relative to parental NL4-3, vNA_2 (CRF02) ([9]; IN 124/125 NA): 2 | Fold change in EC50 relative to parental NL4-3, vNV (B) ([9]; IN 124/125 NV): 1 | Fold change in EC50 relative to parental NL4-3, vSA_1 (B) ([9]; IN 124/125 SA): 3 | Fold change in EC50 relative to parental NL4-3, vSA_2 (CRF02) ([9]; IN 124/125 SA): 2 | Fold change in EC50 relative to parental NL4-3, vTA_1 (B) ([9]; IN 124/125 TA): 2 | Fold change in EC50 relative to parental NL4-3, vTA_2 (CRF02) ([9]; IN 124/125 TA): 2
